Values quoted from earlier work, collected in US10226441B2, “Aging inhibitor” (NIHON SIZEN HAKKOH CO., LTD., priority 2014, dated 2019).

Tested on: mice of the same species (SAM-P1, male)

| Structure (SMILES) | Average survival (Days) (Non-Patent Literature 14) | Average survival, Age in weeks (Non-Patent Literature 14) [weeks] | Average survival (Non-Patent Literature 14, listed as reduced CoQ10) [days] |
| --- | --- | --- | --- |
| COc1c(O)c(C)c(C/C=C(\C)CC/C=C(\C)CC/C=C(\C)CC/C=C(\C)CC/C=C(\C)CC/C=C(\C)CC/C=C(\C)CC/C=C(\C)CC/C=C(\C)CCC=C(C)C)c(O)c1OC [CoQ10H2] | (519.64 ± 79.53) days | 74.234 | 519.64 |
| COC1=C(OC)C(=O)C(C/C=C(\C)CC/C=C(\C)CC/C=C(\C)CC/C=C(\C)CC/C=C(\C)CC/C=C(\C)CC/C=C(\C)CC/C=C(\C)CC/C=C(\C)CCC=C(C)C)=C(C)C1=O [CoQ10, coenzyme Q10] | – | 73.98 | – |
